Reference: PubChem BioAssay (NCI)
“And” between values parts separate entries of the source, which are not always exact repeats. Identical values can stand only once.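 Cultured in 96-well plates, cells were exposed to test compound for 48 hours across five concentrations. GI50 is the concentration that inhibits growth by half. At the TGI there is no net growth.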

What was measured:
Experiment in all cases: NCI anticancer screen, dose series, 48 h
OVCAR-3 ovarian = test system: OVCAR-3 ovarian
CAKI-1 renal = test system: CAKI-1 renal
M14 melanoma = test system: M14 melanoma
UACC-257 melanoma = test system: UACC-257 melanoma
MDA-MB-435 = test system: MDA-MB-435
HCT-15 colon = test system: HCT-15 colon
EKVX NSCLC = test system: EKVX NSCLC
UACC-62 melanoma = test system: UACC-62 melanoma
SF-539 CNS = test system: SF-539 CNS
XF 498 CNS = test system: XF 498 CNS
A549 NSCLC = test system: A549 NSCLC
BT-549 breast = test system: BT-549 breast
OVCAR-5 ovarian = test system: OVCAR-5 ovarian
MALME-3M melanoma = test system: MALME-3M melanoma
SF-295 CNS = test system: SF-295 CNS
SK-OV-3 ovarian = test system: SK-OV-3 ovarian
HOP-92 NSCLC = test system: HOP-92 NSCLC
RXF-631 renal = test system: RXF-631 renal
MOLT-4 leukemia = test system: MOLT-4 leukemia
SK-MEL-28 melanoma = test system: SK-MEL-28 melanoma
HL-60(TB) leukemia = test system: HL-60(TB) leukemia
NCI/ADR-RES ovarian = test system: NCI/ADR-RES ovarian
SW-620 colon = test system: SW-620 colon
OVCAR-8 ovarian = test system: OVCAR-8 ovarian
HCT-116 colon = test system: HCT-116 colon
HCC-2998 colon = test system: HCC-2998 colon
IGROV1 ovarian = test system: IGROV1 ovarian
TK-10 renal = test system: TK-10 renal
U251 CNS = test system: U251 CNS
SR leukemia = test system: SR leukemia
K-562 leukemia = test system: K-562 leukemia
RXF 393 renal = test system: RXF 393 renal
CCRF-CEM leukemia = test system: CCRF-CEM leukemia
DMS 273 small cell lung = test system: DMS 273 small cell lung
MCF7 breast = test system: MCF7 breast
DU-145 prostate = test system: DU-145 prostate
PC-3 prostate = test system: PC-3 prostate
RPMI-8226 leukemia = test system: RPMI-8226 leukemia
KM12 colon = test system: KM12 colon
MDA-MB-231 breast = test system: MDA-MB-231 breast
786-0 renal = test system: 786-0 renal
T-47D breast = test system: T-47D breast
NCI-H226 lung = test system: NCI-H226 lung
SNB-19 CNS = test system: SNB-19 CNS
SNB-75 CNS = test system: SNB-75 CNS
SK-MEL-5 melanoma = test system: SK-MEL-5 melanoma
NCI-H460 lung = test system: NCI-H460 lung
HT29 colon = test system: HT29 colon
ACHN renal = test system: ACHN renal
LXFL 529 NSCLC = test system: LXFL 529 NSCLC
SK-MEL-2 melanoma = test system: SK-MEL-2 melanoma
M19-MEL melanoma = test system: M19-MEL melanoma
NCI-H23 lung = test system: NCI-H23 lung
OVCAR-4 ovarian = test system: OVCAR-4 ovarian
NCI-H522 lung = test system: NCI-H522 lung
HS 578T breast = test system: HS 578T breast
UO-31 renal = test system: UO-31 renal
DLD-1 colon = test system: DLD-1 colon
LOX IMVI melanoma = test system: LOX IMVI melanoma
KM20L2 colon = test system: KM20L2 colon
MDA-N = test system: MDA-N
HOP-62 NSCLC = test system: HOP-62 NSCLC
HOP-18 NSCLC = test system: HOP-18 NSCLC
SN12C renal = test system: SN12C renal
COLO 205 colon = test system: COLO 205 colon
SF-268 CNS = test system: SF-268 CNS
DMS 114 small cell lung = test system: DMS 114 small cell lung

## COc1cc2c[n+](C)c3c4ccccc4ccc3c2cc1OC (tested in a mixture with another compound)
OVCAR-3 ovarian
  GI50: 1.64 µM
  TGI: 7.41 µM and 21.4 µM
CAKI-1 renal
  TGI: > 83 µM
M14 melanoma
  GI50: 8.31 µM
  TGI: 51.9 µM
UACC-257 melanoma
  GI50: 2.11 µM
  TGI: 6.15 µM and 49 µM
MDA-MB-435
  GI50: 8.92 µM
  TGI: 21.5 µM
HCT-15 colon
  TGI: > 100 µM
EKVX NSCLC
  GI50: 1.47 µM
  TGI: 41.8 µM
UACC-62 melanoma
  GI50: 3.08 µM
  TGI: 20.3 µM
SF-539 CNS
  GI50: 1.54 µM
  TGI: 5.65 µM and 25 µM
XF 498 CNS
  TGI: 17.7 µM
A549 NSCLC
  TGI: 39.3 µM
BT-549 breast
  GI50: 11 µM
  TGI: 24.6 µM
OVCAR-5 ovarian
  GI50: 4.67 µM
  TGI: 52.7 µM
MALME-3M melanoma
  GI50: 1.28 µM
  TGI: 3.25 µM and 14 µM
SF-295 CNS
  TGI: 71.5 µM
SK-OV-3 ovarian
  TGI: 51.2 µM
HOP-92 NSCLC
  GI50: 5.25 µM
  TGI: 28.6 µM
RXF-631 renal
  TGI: > 66.1 µM
MOLT-4 leukemia
  GI50: 0.514 µM
  TGI: 50.5 µM
SK-MEL-28 melanoma
  GI50: 2.89 µM
  TGI: 8.22 µM and 18.6 µM
HL-60(TB) leukemia
  GI50: 4.56 µM
  TGI: > 84.2 µM
NCI/ADR-RES ovarian
  TGI: > 100 µM
SW-620 colon
  GI50: 2.71 µM
  TGI: 48 µM
OVCAR-8 ovarian
  GI50: 3.57 µM
  TGI: 31.7 µM
HCT-116 colon
  GI50: 2.55 µM
  TGI: 27.2 µM
HCC-2998 colon
  GI50: 6.36 µM
  TGI: 21.3 µM
IGROV1 ovarian
  GI50: 2.75 µM
  TGI: 44.1 µM
TK-10 renal
  TGI: 87.3 µM
U251 CNS
  GI50: 1.31 µM
  TGI: 6.36 µM and 16.9 µM
SR leukemia
  GI50: 0.818 µM
K-562 leukemia
  GI50: 2.29 µM
RXF 393 renal
  TGI: 54.4 µM
CCRF-CEM leukemia
  GI50: 2.08 µM
  TGI: > 70.6 µM
DMS 273 small cell lung
  TGI: 15.7 µM
MCF7 breast
  GI50: 19.8 µM
DU-145 prostate
  GI50: 13.5 µM
  TGI: 69.6 µM
PC-3 prostate
  TGI: 20.1 µM
RPMI-8226 leukemia
  GI50: 1.71 µM
KM12 colon
  GI50: 0.544 µM
  TGI: 2.5 µM and 13.2 µM
MDA-MB-231 breast
  GI50: 10.3 µM
  TGI: 9.2 µM and 25.6 µM
786-0 renal
  GI50: 4.53 µM
  TGI: 39.5 µM
T-47D breast
  GI50: 4.68 µM
  TGI: 63.3 µM
NCI-H226 lung
  TGI: 33 µM
SNB-19 CNS
  GI50: 0.964 µM
  TGI: 25.1 µM
SNB-75 CNS
  GI50: 3.11 µM
  TGI: 8.49 µM and 15 µM
SK-MEL-5 melanoma
  GI50: 7.6 µM
  TGI: 29 µM
NCI-H460 lung
  GI50: 2.96 µM
  TGI: 31.7 µM
HT29 colon
  GI50: 3.94 µM
  TGI: 32.4 µM
ACHN renal
  TGI: > 100 µM
LXFL 529 NSCLC
  TGI: 16 µM
SK-MEL-2 melanoma
  GI50: 4.25 µM
  TGI: 21.8 µM
M19-MEL melanoma
  TGI: 15.4 µM
NCI-H23 lung
  TGI: 31.7 µM
OVCAR-4 ovarian
  GI50: 4.04 µM
  TGI: 43.2 µM
NCI-H522 lung
  GI50: 0.785 µM
  TGI: 4.37 µM and 11.6 µM
HS 578T breast
  GI50: 3.35 µM
  TGI: 18.4 µM
UO-31 renal
  TGI: > 100 µM
DLD-1 colon
  TGI: > 100 µM
LOX IMVI melanoma
  GI50: 4.02 µM
  TGI: 30.9 µM
KM20L2 colon
  TGI: 37.9 µM
MDA-N
  TGI: 20.5 µM
HOP-62 NSCLC
  GI50: 6.41 µM
  TGI: 49.7 µM
HOP-18 NSCLC
  TGI: 76.8 µM
SN12C renal
  GI50: 1.07 µM
  TGI: 5.58 µM and 17.7 µM
COLO 205 colon
  GI50: 1.46 µM
  TGI: 5.02 µM and 14 µM
SF-268 CNS
  TGI: 2.86 µM and 10.4 µM
DMS 114 small cell lung
  TGI: 14.6 µM
